Reference: patent publication US20230114728A1 (Venatorx Pharmaceuticals, Inc., priority 2019, published 2023)

How the values were obtained:
[1] = Bocillin-FL fluorescence polarization competition binding assay, A. baumannii PBP3; conditions: fluorescence polarization competition binding assay using Bocillin-FL; column 3; read-out: 4. baumannii PBP1a Potency
How it was run: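 Fluorescence polarization (ex 490/em 520 nm) competition of inhibitors against Bocillin-FL at 0.1 μM, read up to 60 min. Final PBP levels: E. coli PBP3 1.5 μM; A. baumannii PBP2 2.5 μM, PBP3 0.2 μM in Tris pH 8.0/NaCl/glycerol/Tween 20; N. gonorrhoeae PBP2 […] in Hepes pH 8.0/NaCl/glycerol. EC50 = concentration halving PBP-bound Bocillin-FL.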

N. gonorrhoeae WHO Q = experiment: Liquid broth MIC in Fastidious broth; format: cell-based; conditions: Neisseria gonorrhoeae, read-out: Minimum Inhibitory Concentration, N. gonorrhoeae WHO Q
How it was run: (§1)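 Colonies were swabbed from chocolate agar after 24 h growth and standardised by optical density at 600 nm. Compounds were serially diluted twofold in Fastidious broth, and bacteria added to give 5×10^5 CFU/mL. After about 24 h at 36 °C in 5% CO2, the lowest concentration allowing under 10% growth was taken as MIC.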

N. gonorrhoeae WHO Z = experiment: Liquid broth MIC in Fastidious broth; format: cell-based; conditions: Neisseria gonorrhoeae, read-out: Minimum Inhibitory Concentration, N. gonorrhoeae WHO Z
How it was run: as §1

P. aeruginosa PBP3 = molecular target: T1, P. aeruginosa PBP3 (Pseudomonas aeruginosa, UniProt G3XD46); experiment: Bocillin-FL fluorescence polarization competition binding assay, P. aeruginosa PBP3; conditions: fluorescence polarization competition binding assay using Bocillin-FL
T1 construct: made in house
How it was run: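 Binding of boronic acid inhibitors to purified Pseudomonas aeruginosa (PA01) PBP3 was measured by fluorescence polarization competition with Bocillin-FL, a fluorescent penicillin V. Reactions of 80 μl contained 0.75 μM PBP3 and 0.1 μM Bocillin-FL in 50 mM Hepes (pH 8.0), 300 mM NaCl and 5% (v/v) glycerol, in black 384-well plates. FP (Excitation 490 nm, Emission 520 nm) was read for up to 60 minutes. EC50 is the concentration that halves PBP-bound Bocillin-FL.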

T1 sequence (G3XD46 whole entry): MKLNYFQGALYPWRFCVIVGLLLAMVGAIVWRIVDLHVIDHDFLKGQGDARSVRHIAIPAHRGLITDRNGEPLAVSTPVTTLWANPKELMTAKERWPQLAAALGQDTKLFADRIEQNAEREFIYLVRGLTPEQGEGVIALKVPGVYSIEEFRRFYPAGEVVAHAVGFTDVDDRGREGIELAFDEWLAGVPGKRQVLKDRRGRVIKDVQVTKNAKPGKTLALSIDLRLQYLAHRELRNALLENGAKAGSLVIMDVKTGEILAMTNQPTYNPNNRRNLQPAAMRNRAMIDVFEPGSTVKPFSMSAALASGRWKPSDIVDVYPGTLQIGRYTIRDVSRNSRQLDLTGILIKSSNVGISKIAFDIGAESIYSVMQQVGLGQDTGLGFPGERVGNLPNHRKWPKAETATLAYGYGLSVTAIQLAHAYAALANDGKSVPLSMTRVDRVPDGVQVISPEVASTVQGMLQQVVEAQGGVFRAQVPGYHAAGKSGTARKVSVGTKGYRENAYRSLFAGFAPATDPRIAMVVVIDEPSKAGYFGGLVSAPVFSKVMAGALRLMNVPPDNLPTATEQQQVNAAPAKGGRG

SMILES | EC50 [1] [µM] | MIC (N. gonorrhoeae WHO Q) [µg/mL] | MIC (N. gonorrhoeae WHO Z) [µg/mL] | P. aeruginosa PBP3 Potency (P. aeruginosa PBP3)
O=C(O)c1ccc(C(NC(=O)c2c(F)cc(O)c(O)c2Cl)C(=O)N[C@H]2Cc3ccc(F)c(C(=O)O)c3OB2O)cc1F (stereo partly drawn) [Example 71, (3R)-3-(2-(4-carboxy-3-fluorophenyl)-2-(2-chloro-6-fluoro-3,4-dihydroxybenzamido)acetamido)-7-fluoro-2-hydroxy-3,4-dihydro-2H-benzo[e][1,2]oxaborinine-8-carboxylic acid] | > 100 | > 64 | > 64 | D (D represents a potency <10 μM)
NCCN1CCN(C(=O)N[C@H](C(=O)N[C@H]2Cc3cccc(C(=O)O)c3OB2O)c2ccc(O)cc2Cl)C(=O)C1=O (single isomer, unassigned) [Example 85] | > 100 | > 64 | > 64 | C (C represents a potency between 10 and 30 μM)
